In PubChem BioAssay (NCI):
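Where inhibition never reached the appropriate level, the endpoint shown equals the highest concentration tested. Otherwise, values were interpolated linearly from a five-concentration, 48-hour dose response in 96-well plates. TGI: concentration producing complete growth inhibition.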

What was measured:
Test in all cases: inhibition of tumour cell growth, NCI panel, 48 h
[1] = system: NCI-H460 lung
[2] = system: KM12 colon
[3] = system: SF-268 CNS
[4] = system: SF-539 CNS
[5] = system: MOLT-4 leukemia
[6] = system: SK-MEL-28 melanoma
[7] = system: ACHN renal
[8] = system: MDA-MB-231 breast
[9] = system: HT29 colon
[10] = system: NCI-H522 lung
[11] = system: SK-MEL-2 melanoma
[12] = system: HL-60(TB) leukemia
[13] = system: CCRF-CEM leukemia
[14] = system: CAKI-1 renal
[15] = system: T-47D breast
[16] = system: OVCAR-4 ovarian
[17] = system: OVCAR-8 ovarian
[18] = system: NCI-H226 lung
[19] = system: UO-31 renal
[20] = system: 786-0 renal
[21] = system: COLO 205 colon
[22] = system: NCI-H23 lung
[23] = system: DU-145 prostate
[24] = system: EKVX NSCLC
[25] = system: TK-10 renal
[26] = system: SN12C renal
[27] = system: BT-549 breast
[28] = system: MALME-3M melanoma
[29] = system: UACC-62 melanoma
[30] = system: HOP-62 NSCLC
[31] = system: NCI/ADR-RES ovarian
[32] = system: SF-295 CNS
[33] = system: U251 CNS
[34] = system: HCC-2998 colon
[35] = system: MCF7 breast
[36] = system: RPMI-8226 leukemia
[37] = system: SR leukemia
[38] = system: OVCAR-5 ovarian
[39] = system: SK-MEL-5 melanoma
[40] = system: SNB-19 CNS
[41] = system: OVCAR-3 ovarian
[42] = system: MDA-N
[43] = system: HCT-116 colon
[44] = system: UACC-257 melanoma
[45] = system: HCT-15 colon
[46] = system: M14 melanoma
[47] = system: MDA-MB-435
[48] = system: A549 NSCLC
[49] = system: K-562 leukemia
[50] = system: LOX IMVI melanoma
[51] = system: PC-3 prostate
[52] = system: RXF 393 renal
[53] = system: IGROV1 ovarian
[54] = system: A498 renal
[55] = system: SNB-75 CNS
[56] = system: HS 578T breast
[57] = system: SW-620 colon
[58] = system: HOP-92 NSCLC
[59] = system: SK-OV-3 ovarian

Measured: TGI

c1cc2c(s1)-c1sccc1C21OCCO1
80.9 µM: [15]
not listed: [51] | [52] | [53] | [54] | [55] | [56] | [57] | [58] | [59]
> 100 µM: all other assays above

COC(CN(C(C)=O)C1CCC2(SCCS2)c2[nH]c3ccccc3c21)OC (centres undefined)
1.71 µM: [50]
3.36 µM: [44]
not listed: [15] | [29] | [32] | [59]
> 100 µM: all other assays above

Cc1ccc(S(=O)(=O)OC2C(O)C(O)OC2C(c2cc(O)c3c(c2O)C(=O)c2ccccc2C3=O)c2cc(O)c3c(c2O)C(=O)c2ccccc2C3=O)cc1 (centres undefined)
8.9 µM: [14]
8.67 µM: [36]
9.33 µM: [32]
4.85 µM: [21]
8.71 µM: [46]
9.43 µM: [51]
4.52 µM: [12]
8.93 µM: [22]
6.98 µM: [28]
not listed: [1] | [3] | [4] | [7] | [10] | [11] | [16] | [18] | [19] | [27] | [31] | [33] | [38] | [40] | [41] | [43] | [47] | [50] | [54] | [56] | [58]
> 10 µM: all other assays above

COc1ccc(-n2c(N)c(C#N)[nH]c2=O)cc1
7.91 µM: [32]
3.98 µM: [50]
not listed: [14] | [27] | [35]
> 10 µM: all other assays above
